The source of these data is ChEMBL document CHEMBL3751701, “Class I and Class II Lanthipeptides Produced by Bacillus spp” (2015).

Holding throughout (format): functional
For assay [1], the system named is Enterococcus faecalis. As to the kind of experiment: Antibacterial activity against Enterococcus faecalis ATCC 29212 by microdilution method. In general terms: Dilution methods test growth across graded concentrations, often in twofold steps.
Assay [2] concerns Enterococcus faecalis. In words: Antibacterial activity against Enterococcus faecalis ATCC 51299 by microdilution method.
The subject of assay [3] is Kocuria rhizophila. In words: Antibacterial activity against Micrococcus luteus ATCC 9341 by microdilution method.
In assay [4] the test system is Staphylococcus aureus. In words: Antibacterial activity against Staphylococcus aureus ATCC 29213 by microdilution method.
Assay [5] has as its system Staphylococcus aureus. In words: Antibacterial activity against methicillin-resistant Staphylococcus aureus ATCC 43300 by microdilution method.
The subject of a further assay is Lactococcus lactis. As to the kind of experiment: Antibacterial activity against Lactococcus lactis MG1614 by agar diffusion assay. (In general: Agar diffusion results depend on both activity and mobility in agar.)
The test system of a further assay is Micrococcus luteus. In words: Antibacterial activity against Micrococcus luteus […] 8166 by agar diffusion assay.
For a further assay, the system named is Bacillus cereus. In words: Antibacterial activity against Bacillus cereus RFB125 after 24 hrs by microdilution method. The following applies: RFB125, 24 h.
In a further assay the test system is Priestia megaterium. In words: Antibacterial activity against Bacillus megaterium RFB124 after 24 hrs by microdilution method. The following applies: RFB124, 24 h.
In a further assay the test system is Bacillus spizizenii. As to the kind of experiment: Antibacterial activity against Bacillus subtilis ATCC 6633 after 24 hrs by microdilution method. The following applies: ATCC 6633, 24 h.
In assay [6] the test system is Enterococcus faecalis. In words: Antibacterial activity against Enterococcus faecalis ATCC 29212 after 24 hrs by microdilution method. The settings on record: ATCC 29212, 24 h.
The test system of the next assay is Enterococcus faecium. In words: Antibacterial activity against Enterococcus faecium RFB128 after 24 hrs by microdilution method. The following applies: RFB128, 24 h.
A further assay relates to Listeria innocua. In words: Antibacterial activity against Listeria innocua ATCC 33090 after 24 hrs by microdilution method. The following applies: ATCC 33090, 24 h.
Assay [7] has as its system Listeria monocytogenes. In words: Antibacterial activity against Listeria monocytogenes LMG 21263 after 24 hrs by microdilution method. The settings on record: LMG 21263, 24 h.
In assay [8] the test system is Listeria monocytogenes. In words: Antibacterial activity against Listeria monocytogenes LMG 23905 after 24 hrs by microdilution method. The following applies: LMG 23905, 24 h.
The test system of assay [9] is Kocuria rhizophila. In words: Antibacterial activity against Micrococcus luteus ATCC 9341 after 24 hrs by microdilution method.
Assay [10] concerns Staphylococcus aureus. In words: Antibacterial activity against Staphylococcus aureus ATCC 25923 after 24 hrs by microdilution method. The following applies: ATCC 25923, 24 h.
For assay [11], the system named is Staphylococcus aureus. As to the kind of experiment: Antibacterial activity against methicillin-resistant Staphylococcus aureus ATCC 43300 after 24 hrs by microdilution method. The following applies: ATCC 43300, 24 h.
Assay [12] deals with Staphylococcus aureus. In words: Antibacterial activity against Staphylococcus aureus RFB127 after 24 hrs by microdilution method. The following applies: RFB127, 24 h.
The test system of assay [13] is Staphylococcus epidermidis. As to the kind of experiment: Antibacterial activity against Staphylococcus epidermidis ATCC 1228 after 24 hrs by microdilution method. The following applies: ATCC 1228, 24 h.
A further assay relates to Streptococcus agalactiae. In words: Antibacterial activity against Streptococcus agalactiae RFB141 after 24 hrs by microdilution method. The settings on record: RFB141, 24 h.

Structures are written as SMILES. Converted amounts (≈) assume the structure as drawn.

The MIC is the lowest concentration that inhibits growth of the organism.

Consider `C=C(NC(=O)[C@H](NC(=O)[C@@H](CCCCN)NC(=O)[C@@H]1CSC(C)C2NC(=O)[C@@H]([C@H](C)CC)NC(=O)C(NC(=O)[C@@H](CCC(N)=O)NC(=O)[C@@H](CC(C)C)NC(=O)[C@@H](Cc3ccccc3)NC(=O)[C@@H]3CSC(C)C(NC(=O)[C@H](NC(=O)[C@@H]4CSC(C)C(NC(=O)[C@H]5CSC[C@@H](NC(=O)[C@@H](CCCCN)NC(=O)[C@H](N)Cc6c[nH]c7ccccc67)C(=O)N[C@H](CCC(=O)O)C(=O)NC(=C)C(=O)N[C@H](C(C)C)C(=O)N5)C(=O)N5CCC[C@@H]5C(=O)NCC(=O)N4)C(C)C)C(=O)NCC(=O)N[C@@H](CC(C)C)C(=O)N[C@@H](CC(C)C)C(=O)N[C@H](CCC(N)=O)C(=O)N/C(=C\C)C(=O)N3)C(C)SC[C@@H](NC2=O)C(=O)N[C@H](CC(N)=O)C(=O)N1)[C@H](C)CC)C(=O)N[C@@H](CCCCN)C(=O)O` (stereo partly specified), for which the MIC in the assay with Enterococcus faecalis [1] was 4.84 µM (≈ 16.2 µg/mL); against Enterococcus faecalis [2], 2.32 µM (≈ 7.77 µg/mL); against Kocuria rhizophila [3], 1.16 µM (≈ 3.89 µg/mL); against Staphylococcus aureus [4], 1.16 µM (≈ 3.89 µg/mL); in the assay with Staphylococcus aureus [5], 2.32 µM (≈ 7.77 µg/mL).

In the case of `C=C(NC(=O)[C@H](NC(=O)[C@@H](CCCCN)NC(=O)[C@@H]1CSC(C)C2NC(=O)[C@@H](CC(C)C)NC(=O)C(NC(=O)[C@H](CCC(N)=O)NC(=O)[C@H](CC(C)C)NC(=O)[C@H](Cc3ccccc3)NC(=O)[C@@H]3CSC(C)C(NC(=O)[C@H](NC(=O)[C@@H]4CSC(C)C(NC(=O)[C@H]5CSC[C@H](NC(=O)[C@H](CCCCN)NC(=O)[C@@H](N)Cc6c[nH]c7ccccc67)C(=O)N[C@@H](CCC(=O)O)C(=O)NC(=C)C(=O)N[C@@H](CC(C)C)C(=O)N5)C(=O)N5CCC[C@@H]5C(=O)NCC(=O)N4)C(C)C)C(=O)NCC(=O)N[C@@H](C)C(=O)N[C@@H](CC(C)C)C(=O)N[C@@H](CCC(N)=O)C(=O)N/C(=C\C)C(=O)N3)C(C)SC[C@@H](NC2=O)C(=O)N[C@H](CC(N)=O)C(=O)N1)[C@H](C)CC)C(=O)N[C@@H](CCCCN)C(=O)O` (stereo partly specified), the MIC in the assay on Lactococcus lactis was determined as 0.301 µM (≈ 1 µg/mL); in the assay on Micrococcus luteus it was 0.0151 µM (≈ 0.0501 µg/mL).

In the case of `C/C=C(\NC(=O)[C@H](Cc1cnc[nH]1)NC(=O)/C(=C/C)NC(=O)[C@@H]1CCCN1C(=O)[C@@H]1CSC[C@@H]2NC(=O)[C@H](CC(C)C)NC(=O)[C@@H](NC(=O)[C@H]3CSC[C@@H](NC(=O)[C@@H](NC(=O)CNC(=O)[C@H](CCCNC(=N)N)NC(=O)[C@H](CCC(N)=O)NC(=O)[C@H](CCC(=O)O)NC(=O)[C@H](C)N)[C@H](C)CC)C(=O)N[C@@H](CCC(N)=O)C(=O)NCC(=O)N[C@H](CC(N)=O)C(=O)N[C@H](CC(=O)O)C(=O)NCC(=O)N[C@H](CCCCN)C(=O)N[C@@H](CC(C)C)C(=O)N3)CSC[C@@H](NC(=O)[C@H](CCC(=O)O)NC(=O)[C@H](Cc3c[nH]c4ccccc34)NC2=O)C(=O)NCC(=O)N[C@@H](CC(C)C)C(=O)N1)C(=O)N[C@@H](CS)C(=O)N[C@H](Cc1c[nH]c2ccccc12)C(=O)N[C@H](CS)C(=O)O`, the MIC against Bacillus cereus was found to be 0.2 µM (≈ 0.659 µg/mL); in the assay on Priestia megaterium, 0.4 µM (≈ 1.32 µg/mL); with Bacillus spizizenii, 1.4 µM (≈ 4.61 µg/mL); with Enterococcus faecalis [6], 1.4 µM (≈ 4.61 µg/mL); in the assay on Enterococcus faecium it was 0.1 µM (≈ 0.329 µg/mL); with Listeria innocua it was 0.7 µM (≈ 2.31 µg/mL). The MIC against Listeria monocytogenes [7] amounted to 0.5 µM (≈ 1.65 µg/mL); in the assay with Listeria monocytogenes [8] it was 0.4 µM (≈ 1.32 µg/mL); against Kocuria rhizophila [9] it was 0.7 µM (≈ 2.31 µg/mL); in the assay with Staphylococcus aureus [10] it was 2.8 µM (≈ 9.22 µg/mL); in the assay on Staphylococcus aureus [11], 0.4 µM (≈ 1.32 µg/mL); against Staphylococcus aureus [12], 1.4 µM (≈ 4.61 µg/mL). Besides, the MIC (in assay [13]; with Streptococcus agalactiae) was 2.8 µM (≈ 9.22 µg/mL) throughout.
